From publication PMC6511942, “Exploitation of Antibiotic Resistance as a Novel Drug Target: Development of a β-Lactamase-Activated Antibacterial Prodrug” (Journal of Medicinal Chemistry, 2019)
In brackets after ≈: the same amount, converted by molar mass. Several values for one entry are separate records, joined by “and”; a condition that tells them apart may be missing. Identical values can stand only once. Like-named read-outs stand apart in the source and are kept apart here.

Key:
[1] = test system: E. coli CFT073 pEMP; assay: Bactericidal activity (survival by CFU counts), CFT073 pEMP; assay type: cell-based; details: 78 nM, CFU counts over time
Experimental: Finally, the ability of prodrug 35 to kill bacteria rather than arrest growth was evaluated. […]
determined as the lowest concentration of antibiotic that inhibited visible bacterial growth.
OD595 measurements were recorded on a BioRad 1Mark Microplate Reader. Measurements were background corrected against the no-inoculum control and normalized to the no-drug […]
Determination of bactericidal activity
Stationary-phase bacteria were inoculated into 3 ml MHB containing no antibiotic, […]
subsequently incubated at 37 °C with shaking (180 r.p.m.) and bacterial viability determined […]
been shown previously to be bactericidal.
Recombinant β-lactamase assay
Each compound was incubated for 1 hour at room temperature in 100 mM NaPO4 (pH 7) ± 0.5 M NaOH. The wavelength at which the difference between un-hydrolysed and hydrolysed compound was the greatest was selected (typically 263 nm) and a compound concentration vs. absorbance standard curve was generated. Compounds, typically 250 μM in assay buffer (100 mM NaPO4 (pH 7)), were dispensed into a Corning 96-well UV transparent flat bottom plate. Recombinant Amp-C in assay buffer was added immediately before incubatio n in the microplate reader at 37 °C. UV absorbance was measured every 20 s for 1 h on a BMG LABTECH SPECTROstarNano. Kinetic parameters were determined by half -life analysis.
NMR β-lactamase hydrolysis assay […]

[2] = test system: Ec16 (CTX-M-15, ciprofloxacin sensitive); assay type: cell-based, E. coli; details: strain EC16, ciprofloxacin sensitive
[3] = test system: CFT073 pNDM (NDM-1); assay: microbe, parasite or virus in culture; assay type: cell-based, E. coli; details: Escherichia coli, read-out: MIC value pNDM
[4] = test system: Ec19 (CTX-M-15, ciprofloxacin resistant); assay: microbe, parasite or virus in culture; assay type: cell-based, E. coli
[5] = test system: E. coli CFT073 pCTX-M-1; assay: Bactericidal activity (survival by CFU counts), CFT073 pCTX-M-1; assay type: cell-based; details: 78 nM
[6] = molecular target: T1, recombinant DNA gyrase (Escherichia coli, UniProt P0AES4+P0AES6); assay: Recombinant DNA gyrase supercoiling assay ± CTX-M-15; assay type: biochemical, E. coli
T1 construct: purchased Inspiralis

[7] = test system: Ec13 (CTX-M-15, ciprofloxacin resistant); assay: microbe, parasite or virus in culture; assay type: cell-based, E. coli
[8] = test system: CFT073 E. coli cells WT; assay: MIC, E. coli CFT073 WT; assay type: cell-based; details: Escherichia coli
[9] = test system: Ec12 (CTX-M-15, ciprofloxacin resistant); assay: microbe, parasite or virus in culture; assay type: cell-based, E. coli
[10] = test system: Ec11 (CTX-M-15, ciprofloxacin sensitive); assay: microbe, parasite or virus in culture; assay type: cell-based, E. coli
[11] = test system: CFT073 + pSU18 (pEMP); assay: microbe, parasite or virus in culture; assay type: cell-based, E. coli
[12] = test system: Ec17 (CTX-M-15, ciprofloxacin sensitive); assay: microbe, parasite or virus in culture; assay type: cell-based, E. coli
[13] = test system: CFT073 + pSU18 + CTX-M-1 (pCTX); assay: microbe, parasite or virus in culture; assay type: cell-based, E. coli
[14] = test system: E. faecalis ATCC29212 and GW01; assay: Antibacterial activity against E. faecalis strains without β-lactamase; assay type: cell-based; details: two strains that did not express β-lactamase
[15] = test system: CFT073 pKPC (KPC-3); assay: microbe, parasite or virus in culture; assay type: cell-based, E. coli; details: Escherichia coli, read-out: MIC value pKPC

T1 sequence (P0AES4 whole entry, one chain of several): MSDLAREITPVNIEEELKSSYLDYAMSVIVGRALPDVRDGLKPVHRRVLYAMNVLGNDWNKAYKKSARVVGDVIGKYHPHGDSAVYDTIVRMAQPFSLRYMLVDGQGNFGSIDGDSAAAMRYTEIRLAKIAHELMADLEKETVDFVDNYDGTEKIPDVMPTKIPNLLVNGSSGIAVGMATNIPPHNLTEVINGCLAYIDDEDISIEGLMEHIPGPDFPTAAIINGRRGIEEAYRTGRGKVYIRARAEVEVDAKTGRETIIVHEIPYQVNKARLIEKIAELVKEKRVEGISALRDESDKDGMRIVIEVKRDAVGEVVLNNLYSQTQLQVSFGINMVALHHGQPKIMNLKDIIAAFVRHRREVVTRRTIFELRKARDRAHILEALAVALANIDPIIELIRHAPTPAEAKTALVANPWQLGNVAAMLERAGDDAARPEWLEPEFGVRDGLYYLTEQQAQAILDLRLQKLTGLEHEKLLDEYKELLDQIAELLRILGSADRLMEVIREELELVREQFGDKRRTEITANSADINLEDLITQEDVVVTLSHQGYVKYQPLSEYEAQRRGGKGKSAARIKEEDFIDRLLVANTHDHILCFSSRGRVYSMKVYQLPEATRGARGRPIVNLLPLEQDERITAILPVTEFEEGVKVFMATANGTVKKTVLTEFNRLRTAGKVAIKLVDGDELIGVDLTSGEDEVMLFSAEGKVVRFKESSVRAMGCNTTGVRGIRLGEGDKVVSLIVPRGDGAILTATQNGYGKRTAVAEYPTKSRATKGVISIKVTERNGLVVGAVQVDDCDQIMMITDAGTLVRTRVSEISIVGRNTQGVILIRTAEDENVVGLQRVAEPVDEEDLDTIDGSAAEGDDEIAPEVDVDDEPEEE

In the case of `CC(=O)N[C@@H]1C(=O)N2C(C(=O)O)=C(COC(=O)c3cn(C4CC4)c4cc(N5CCNCC5)c(F)cc4c3=O)CS[C@H]12` [compound 35, (6R,7R)-7-Acetamido-3-(((1-cyclopropyl-6-fluoro-4-oxo-7-(piperazin-1-yl)-1,4-dihydroquinoline-3-carbonyl)oxy)methyl)-8-oxo-5-thia-1-azabicyclo[4.2.0]oct-2-ene-2-carboxylic Acid], the “growth of CFT073 expressing empty plasmid” value [1] is reported as “growth comparable to no treatment controls”, the “antibacterial activity (in words)” value [2] is reported as “confirmed” and the MIC [3] is reported as 0.04 µg/mL and 0.063 µM. The MIC ([4]; Escherichia coli, read-out: MIC value Ec19) was greater than 5 µM, the “arrest in bacterial growth (in words)” value ([4]; strain EC19, ciprofloxacin resistant) was “no arrest in bacterial growth” and the “killing activity in E. coli expressing CTX-M-1” value ([5]; CFU counts over time) was “almost identical to free ciprofloxacin”. The “greater killing of E. coli expressing CTX-M-1 compared with bacteria not expressing the enzyme” value ([5]; 6 h incubation, CFU counts) was greater than 100 fold, the “inhibition of DNA gyrase” value ([6]; absence of CTX-M-15) was “not observed” and the “reduction of DNA gyrase activity” value ([6]; presence of CTX-M-15, 1 μM compound) was greater than 50%. For the same compound, the MIC ([7]; Escherichia coli, read-out: MIC value Ec13) was greater than 5 µM, the “arrest in bacterial growth (in words)” value ([7]; strain EC13, ciprofloxacin resistant) was “no arrest in bacterial growth” and the MIC ([8]; read-out: MIC value WT, CFT073 WT) was 0.312 µM (≈ 0.183 µg/mL). For the same compound, the MIC ([8]; CFT073 WT, read-out: MIC value WT) was 0.18 µg/mL and 0.31 µM, the MIC ([9]; Escherichia coli, read-out: MIC value Ec12) was greater than 5 µM and the “arrest in bacterial growth (in words)” value ([9]; strain EC12, ciprofloxacin resistant) was “no arrest in bacterial growth”. For the same compound, the MIC ([10]; Escherichia coli, read-out: MIC value Ec11) was 0.63 µM (≈ 0.369 µg/mL), the “antibacterial activity (in words)” value ([10]; strain EC11, ciprofloxacin sensitive) was “confirmed” and the “decrease in activity (MIC) compared to ciprofloxacin 31” value ([11]; CFT073 WT and pEMP, absence of β-lactamase) was 10 fold. The “MIC assay in the presence of human serum” value ([11]; CFT073 pEMP, 10 % normal human serum) was “equivalent to those obtained in the absence of serum”, the MIC ([11]; Escherichia coli, read-out: MIC value pEMP, CFT073 empty plasmid) was 0.312 µM (≈ 0.183 µg/mL) and the MIC ([12]; Escherichia coli, read-out: MIC value Ec17) was 2.5 µM (≈ 1.46 µg/mL). The “antibacterial activity (in words)” value ([12]; strain EC17, ciprofloxacin sensitive) was “confirmed”, the “MIC assay in the presence of human serum” value ([13]; CFT073 pCTX-M-1, 10 % normal human serum) was “equivalent to those obtained in the absence of serum” and the “MIC higher than ciprofloxacin 31” value ([13]; CFT073 strains expressing CTX-M-1, NDM1 or KPC) was 2 fold. For the same compound, the MIC ([13]; Escherichia coli, read-out: MIC value pCTX, CFT073 pCTX) was 0.04 µg/mL and 0.063 µM, the “activity against E. faecalis compared to ciprofloxacin” value [14] was “reduced activity compared to ciprofloxacin” and the MIC [15] was 0.04 µg/mL and 0.063 µM.
